In data set [1] the target is Hepatitis C virus NS5B RNA-dependent RNA polymerase (Hepatitis C virus, UniProt Q8JXU8). Nature of the data set: Inhibition of Hepatitis C virus NS5B polymerase. On the set-up: species or system Hepacivirus hominis.
The target in data set [2] is T1, Human immunodeficiency virus type 1 reverse transcriptase (Human immunodeficiency virus 1, UniProt Q72547). The data set can be described thus: Inhibition of wild type HIV-1 reverse transcriptase.
Data set [3] has as its system Human immunodeficiency virus 2. The data set can be described thus: Antiviral activity against HIV-2 D194 infected in PBMC assessed as inhibition of viral growth. It is filed as functional, organism-based. The settings on record: Human immunodeficiency virus 2, D194, PBMC.
The target of data set [4] is Human immunodeficiency virus type 1 protease (Human immunodeficiency virus 1, UniProt Q72874). The data set can be described thus: Inhibition of HIV-1 protease.
The test system of data set [5] is SARS-CoV-2. Nature of the data set: Antiviral activity against SARS-CoV-2 Omicron assessed as reduction of viral growth. It is filed as functional, organism-based. The conditions noted are these: Severe acute respiratory syndrome coronavirus 2, Omicron.
Data set [6] in a line: Oral bioavailability in rat. Format: ADME, organism-based. The conditions noted are these: in vivo.
The subject of data set [7] is Human immunodeficiency virus 1. The data set can be described thus: Antiviral activity against HIV-1 3B infected in human MT4 cells assessed as reduction in virus-induced cytopathic effect incubated for 5 days by MTT assay. The conditions noted are these: Human immunodeficiency virus 1, 3B, MT4, 120 h. Format: functional, organism-based. A general note: Cytopathic effects are the visible damage that an infection or toxin causes in cultured cells.

A short description of data set [8]: Cytotoxicity against human MT4 cells assessed as reduction in cell viability treated for 5 days by MTT assay. It is filed as toxicity, cell-based. The settings on record: time 5 day. For orientation: Formazan colour is commonly taken as a measure of viable cells.
Data set [9] has as its target Replicase polyprotein 1ab (Severe acute respiratory syndrome coronavirus 2, UniProt P0DTD1). Nature of the data set: Inhibition of N-terminal His6-tagged recombinant full length SARS-CoV-2 3CLpro expressed in Escherichia coli BL21(DE3) using MCA-AVLQSGFR-Lys(Dnp)-Lys-NH2 as fluorogenic substrate preincubated with compound for 10 mins followed by substrate addition by FRET assay.

For the next data set, the target named is Replicase polyprotein 1a (Severe acute respiratory syndrome-related coronavirus, UniProt P0C6U8). The data set can be described thus: Inhibition of SARS-CoV 3CLpro.
Data set [10] deals with SARS-CoV-2. Nature of the data set: Antiviral activity against SARS-CoV-2 infected in Vero E6 cells assessed as reduction in viral replication. It is filed as functional, organism-based. The conditions noted are these: Severe acute respiratory syndrome coronavirus 2, Vero C1008.
The target in data set [11] is T1, Human immunodeficiency virus type 1 reverse transcriptase. The data set can be described thus: Inhibition of HIV-1 reverse transcriptase associated RNA-dependent DNA polymerase.
Data set [12] relates to SARS-CoV-2. Nature of the data set: Antiviral activity against SARS-CoV-2 infected in African green monkey Vero E6 cells expressing TMPRSS2 assessed as reduction in virus-induced cytopathic effect measured after 48 hrs by cellular ATP assay. It is filed as functional, organism-based. The conditions noted are these: Severe acute respiratory syndrome coronavirus 2, Vero C1008, 48 h.

Data set [13] has as its system SARS-CoV. Nature of the data set: Antiviral activity against SARS-CoV-1 infected in African green monkey Vero E6 cells expressing TMPRSS2. It is filed as functional, organism-based. The settings on record: Severe acute respiratory syndrome-related coronavirus, Vero C1008.
Another data set deals with Ebolavirus. Nature of the data set: Antiviral activity against EBOV infected in human Huh-7 cells assessed as reduction in viral replication. Format: functional, organism-based. The settings on record: Orthoebolavirus.
Data set [14] relates to Respiratory syncytial virus. Nature of the data set: Antiviral activity against Respiratory syncytial virus. The conditions noted are these: human respiratory syncytial virus. It is filed as functional, organism-based.
The nature of data set [15]: Selectivity index, ratio of CC50 for cytotoxicity against human HEp-2 cells to IC50 for antiviral activity against RSV A2 infected in human HEp-2 cells.
Data set [16] relates to SARS-CoV. The data set can be described thus: Antiviral activity against SARS-CoV infected in Vero E6 cells assessed as reduction in viral replication measured after 48 hrs by qRT-PCR assay. Format: functional, organism-based. The settings on record: Severe acute respiratory syndrome-related coronavirus, Vero C1008, 48 h.
In data set [17] the test system is Middle East respiratory syndrome-related coronavirus. The data set can be described thus: Antiviral activity against MERS-CoV infected in HAE cells. It is filed as functional, organism-based.
A further data set is described as follows: in vitro. The settings on record: monkey, Vero E6 cells.
Data set [18] deals with SARS-CoV-2. Nature of the data set: microbe, parasite or virus in culture. The conditions noted are these: Severe acute respiratory syndrome coronavirus 2, Vero C1008.
Data set [19] can be described thus: Inhibition of HIV-1 […]. On the set-up: species or system Human immunodeficiency virus 1.
Another data set has as its system Human coronavirus OC43. Nature of the data set: Antiviral activity against HCoV-OC43. The conditions noted are these: Betacoronavirus 1. It is filed as functional, organism-based.
In data set [20] the test system is SARS-CoV-2. The data set can be described thus: Antiviral activity against SARS-CoV-2 assessed as inhibition of viral replication. It is filed as functional, organism-based. The settings on record: Severe acute respiratory syndrome coronavirus 2.
Data set [21] can be described thus: Oral bioavailability in beagle dog at 2 mg/kg. Format: ADME, organism-based, Canis lupus familiaris. The settings on record: in vivo.
In data set [22] the test system is SARS-CoV-2. Nature of the data set: Antiviral activity against SARS-CoV-2 infected in African green monkey Vero E6 cells assessed as reduction in infection measured after 24 hrs by Plaque assay. It is filed as functional, organism-based. The conditions noted are these: Severe acute respiratory syndrome coronavirus 2, Vero C1008, 24 h.
For data set [23], the system named is SARS-CoV-2. The data set can be described thus: Antiviral activity against SARS-CoV-2 B.1.1.7 Alpha infected in human Calu-3 cells assessed as inhibition of viral infection preincubated for 1 hr followed by viral infection measured after 48 hrs by Hoechst 33342 staining based analysis. The conditions noted are these: Severe acute respiratory syndrome coronavirus 2, B.1.1.7, Calu-3. Format: functional, organism-based.

The test system of data set [24] is SARS-CoV-2. The data set can be described thus: Antiviral activity against SARS-CoV-2 […] infected in human 293TA cells assessed as reduction of viral growth measured after 48 hrs by luciferase assay. Format: functional, organism-based. The conditions noted are these: Severe acute respiratory syndrome coronavirus 2, 293TA.
The subject of data set [25] is SARS-CoV-2. The data set can be described thus: Antiviral activity against SARS-CoV-2 […] B.1.617.2 delta infected in human 293TA cells assessed as reduction of viral growth measured after 48 hrs by luciferase assay. Format: functional, organism-based. The settings on record: Severe acute respiratory syndrome coronavirus 2, 293TA.

Here are results for twelve compounds from ChEMBL document CHEMBL5335778, “Bench-to-bedside: Innovation of small molecule anti-SARS-CoV-2 drugs in China” (Eur J Med Chem, 2023).

Bounds are passed on as bounds.

Hepatitis C virus NS5B RNA-dependent RNA polymerase, sequence (Q8JXU8 whole entry): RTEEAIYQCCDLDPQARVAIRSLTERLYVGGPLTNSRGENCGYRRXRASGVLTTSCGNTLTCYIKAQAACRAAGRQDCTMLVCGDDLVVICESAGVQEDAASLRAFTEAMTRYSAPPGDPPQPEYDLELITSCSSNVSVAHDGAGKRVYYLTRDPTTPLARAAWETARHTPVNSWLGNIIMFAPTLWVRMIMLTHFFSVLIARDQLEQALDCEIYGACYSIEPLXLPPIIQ

One may read the IC50 as the concentration needed to halve the response being measured. As a reminder, the EC50 is the concentration at which the effect is half-maximal. Take `[N-]=[N+]=N[C@]1(CO)O[C@@H](n2ccc(N)nc2=O)[C@@H](O)[C@@H]1O`: the IC50 was found to be 1280 nM in data set [1] and 171 nM in data set [4]. In addition, the half-maximal effective concentration (EC50) is 0.03 nM in data set [2] and 0.018 nM in data set [3].

`O=C[C@H](C[C@@H]1CCNC1=O)NC(=O)[C@H](Cc1ccccc1)NC(=O)c1cc2ccccc2[nH]1`: the EC50 with SARS-CoV-2 [5] is 33 nM.

As a reminder, the bioavailability is the share of a dose that reaches the circulation, judged against a reference dose that is usually intravenous. One may read the CC50 as the concentration giving 50% cytotoxicity. For `[2H]c1cc([C@]2(C#N)O[C@H](CO)[C@@H](O)[C@H]2O)n2ncnc(N)c12`, in data set [6], the bioavailability amounted to 21.7%. For the same compound, in data set [7], the EC50 is 390 nM. Moreover, in data set [8], the CC50 at 120 h is greater than 500000 nM.

With `O=C(OC[C@H]1O[C@@H](OC(=O)c2cc(O)c(O)c(OC(=O)c3cc(O)c(O)c(O)c3)c2)[C@H](OC(=O)c2cc(O)c(O)c(OC(=O)c3cc(O)c(O)c(O)c3)c2)[C@@H](OC(=O)c2cc(O)c(O)c(OC(=O)c3cc(O)c(O)c(O)c3)c2)[C@@H]1OC(=O)c1cc(O)c(O)c(OC(=O)c2cc(O)c(O)c(O)c2)c1)c1cc(O)c(O)c(OC(=O)c2cc(O)c(O)c(O)c2)c1` [TANNIC ACID], the EC50 in data set [9] turned out to be 585 nM; at Replicase polyprotein 1a it was 8310 nM; in the data set on SARS-CoV-2 [10] it was 12900 nM.

`C[C@@]1(O)[C@H](O)[C@@H](CO)O[C@H]1n1ccc(N)nc1=O` yielded an IC50 in [11] of 1050 nM.

Consider `Cn1cnc(Cn2c(=O)[nH]/c(=N\c3cc4cn(C)nc4cc3Cl)n(Cc3cc(F)c(F)cc3F)c2=O)n1`, for which the EC50 was found to be 350 nM in the data set on SARS-CoV-2 [12] and 1900 nM with SARS-CoV [13].

As to `CCC(CC)COC(=O)[C@H](C)N[P@](=O)(OC[C@H]1O[C@@](C#N)(c2ccc3c(N)ncnn23)[C@H](O)[C@@H]1O)Oc1ccccc1`, the EC50 worked out at 12 nM in the data set with Ebolavirus; 21 nM in data set [14]; 69 nM in the data set on SARS-CoV [16]; 25 nM in data set [17]; 770 nM with SARS-CoV-2 [18]. Moreover, the selectivity ratio in [15] is 395; in the data set “in vitro”, greater than 100.

`[N-]=[N+]=N[C@]1(CO)O[C@@H](n2ccc(N)nc2=O)[C@@H](F)[C@@H]1O` [RO-0622] showed an EC50 in [19] of 1200 nM.

Take `[N-]=[N+]=N[C@]1(COP(=O)(O)OP(=O)(O)OP(=O)(O)O)O[C@@H](n2ccc(N)nc2=O)[C@@H](F)[C@@H]1O`: the EC50 worked out at 0.03 nM in [2], 0.018 nM in [3], 4300 nM in the data set with Human coronavirus OC43 and 1200 nM in the data set on SARS-CoV-2 [20]. The compound further came in with a bioavailability in [21] of 82.7%.

With `O=C(NCc1cccs1)[C@@H]1CN(C(=O)c2cccnc2)CCN1c1ccc(Cl)c(Cl)c1`, the EC50 with SARS-CoV-2 [5] is 33 nM.

On to `N#Cc1cn([C@@H]2O[C@H](CO)[C@@H](O)[C@H]2O)c2ncnc(N)c12` [TOYOCAMYCIN], for which the EC50 with SARS-CoV-2 [22] amounted to 590 nM.

On to `CC(C)(C)[C@H](NC(=O)C(F)(F)F)C(=O)N1C[C@H]2[C@@H]([C@H]1C(=O)N[C@H](C#N)C[C@@H]1CCNC1=O)C2(C)C`, for which the EC50 with SARS-CoV-2 [5] turned out to be 33 nM; with SARS-CoV-2 [23] it was 820 nM; with SARS-CoV-2 [24] it was 490 nM; with SARS-CoV-2 [25], 780 nM.
